Data reported in US20230011398A1, “COMBINATION THERAPY APPROACH TO ELIMINATE HIV INFECTIONS” (priority 2019, published 2023).

Experiments:
[1] = tested on: splenocytes of HIV-1-infected Hu-HSC mice; assay: PHA stimulation of splenocytes from Hu-HSC mice 10 days after HIV-1 infection; type: cell-based; details: PHA 24 h
Description: FIGS. 11A-11C show analyses of Hu-HSC mice by flow cytometry. (FIG. 11A) Flow cytometry analyses of immune cells in the peripheral blood of Hu-HSC mice. NK, nature killer cells; DC, dendritic cells; M1, M1 macrophages; M2, M2 macrophages. (FIG. 11B) Spleen cells were isolated from Hu-HSC mice (n=4) 10 days post HIV-1 infection and cultured with or without PHA for 24 h. Culture media were collected for HIV-1 mRNA determination by RT-PCR. Data are presented as mean ±SD. PHA vs. control, **p=0.0088 (unpaired two-tailed t test). (FIG. 11C) Spleen cells treated in (b) were stained for CD4, followed by intracellular staining of HIV-1 p24 and flow cytometry analysis. […] Data are presented as mean ±SD. PHA vs. control, **p=0.0003 (unpaired two-tailed t test).
Flow cytometry. […] The cells stained with indicated antibodies were analyzed using a BD LSR II flow cytometer (BD Biosciences). […] The cells were analyzed by flow cytometry using a BD LSR II flow cytometer (BD Bioscience) and FlowJo software (version 10.5.3, BD Bioscience).

[2] = tested on: CMT latently infected with HIV-1; assay: HIV-1 latency reversal in latently infected central memory T cells (p24 staining, HIV-1 mRNA RT-PCR); type: cell-based, human; details: for number of HIV-1 p24-producing T cells after latency reversal: latently infected CMT stimulated with IDB, SAR405 2 μM or CQ 10 μM
Text: Flow cytometry. The following antibodies from Biolegend were used for flow cytometry: Pacific Blue-anti-mouse CD45 (1:100, 103126, clone 30-F11,) APC-anti-human CD45 (1:100, 304012, clone HI30), Pacific Blue-anti-human CD19 (1:100, 302232, clone HIB19), PE-anti-human CD4 (1:100, 317414, clone OKT4), APC/Fire-750-anti-human CD8 (1:100, 34474, clone SK1), FITC-anti-human CD56 (1:100, 392413, clone QA17A16), Pacific Blue-anti-human CD19 (1:100, 302232, clone HIB19), Pacific Blue-anti-human CD3 (1:100, 300329, clone HIT3a), PE/Cy7-anti-HLA-HLA-DR, DP, DQ (1:100, 361708, clone Tü139), PerCP/Cy5.5-anti-human CD11b (1:100, 301327, clone ICRF44), APC/Fire-750-anti-human CD163 (1:100, 333633, clone GHI/61), PE-anti-human CD123 (1:100, 306005, clone 6H6), Alexa Fluor 488 anti-human CD11c (1:100, 301618, clone 3.9), PerCP/Cy5.5-anti-human CD3 (1:100, 300328, clone HIT3a), PerCP/Cy5.5 anti-human CD123 (1:100, 306016, clone 6H6), FITC-anti-mouse CD45 (1:100, 103108, clone 30-F11), PE/Cy7 anti-human CD197 (CCR7) (1:100, 353226, clone G043H7), PE-anti-human CD45R0 (1:100, 304244, clone UCHL1), FITC-anti-human CD45RA (1:100, 304148, clone HI100) and Alexa Fluor 488-anti-CD68 (1:30, 333812, clone Y1/82A), PerCP/Cy5.5-anti-human CD19 (1:100, 302230, clone HIB19), PE-anti-human CD27 (1:100, 356406, clone M-T271) and Pacific Blue-anti-human IgD (1:100, 348224, clone IA6-2). PE-anti-human CD3 (1:100, 556612, clone SP34) and V50-anti-human CD4 (1:100, 560345, clone RPA-T4) were from BD Biosciences. The cells stained with indicated antibodies were analyzed using a BD LSR II flow cytometer (BD Biosciences). To detect HIV-1 p24, spleen cells from Hu-HSC mice were stimulated with 5 μg/ml PHA (Sigma) and 6 ng/ml IL-2 (Biolegend). The cells were stained for T cell markers, followed by fixation and permeabilization using the Cytofix/Cytoperm buffer (BD Bioscience) and intracellular staining with PE-conjugated anti-p24 (1:30, 6604667, clone KC57, Beckman Coulter). The cells were analyzed by flow cytometry using a BD LSR II flow cytometer (BD Bioscience) and FlowJo software (version 10.5.3, BD Bioscience).
T cell isolation and infection with HIV-1. Peripheral blood mononuclear cells (PBMCs) of anonymous healthy donors from the Gulf Coast Blood Center were used to purify CD4^+ T cells with anti-CD4 MACS beads (Miltenyi Biotec). CD3^+CD4^+CD45RA^+CD45RO^−CCR7^+ naïve T cells, CD3^+CD4^+CD45RA^−CD45RO^+CCR7+ central memory T cells (CMT) and CD3^+CD4^+CD45RA^−CD45RO^+CCR7^− effector memory T cells (EMT) were sorted using a BD FACSAria flow cytometer (BD Bioscience). Naive CD4^+ T cells were stimulated with 5 μg/ml PHA and 6 ng/ml IL-2 in RPMI complete medium for 2 days to generate activated CD4^+ T cells. Sorted T cell subsets or activated T cells were infected with HIV-1 CXCR4-tropic NL4-3 or CCRS-tropic AD8 (both virus clones were obtained from the NIH AIDS Reagent Program) at the indicated MOI for 2 h. The cells were washed with PBS and cultured in RPMI complete medium containing 30 nM CCL19 (Biolegend) and 0.3 ng/ml IL-2 (Biolegend) and for 4 days to establish latent HIV infection as described.
Naïve T cells, activated T cells, CMT or EMT with or without infection with HIV-1 (NL4-3, 1 MOI) were cultured for 4 days in the presence of 30 nM CCL19 and 0.3 ng/ml IL-2 for 4 days to establish latent HIV infection. The cells with or without HIV-1 infections were stimulated with 0.1 μM IDB (Ingenol-3,20-dibenzonate, ENZO Life Sciences) in the presence of 0.2 μM ABT-263 (Adooq Bioscience), 2 μM SAR405 (MedChemExpress) or 10 μM chloroquine (CQ, Sigma) as indicated for 48 h. The cells were then incubated with 1 μM FITC-DEVD-FMK (Biovision), followed by staining with APC-Annexin V (Biolegend) and intracellular staining with PE-anti-HIV p24. The cells were analyzed by flow cytometry. The percentage of cell death was calculated by the loss of live cells negative for annexin V and DEVD staining by comparing treated and untreated groups: (untreated—treated)/untreated x 100%. […]

[3] = tested on: HIV-1-infected T cells; assay: Annexin V / DEVD-FITC / p24 cell death assay in T cells with or without HIV-1 infection; type: cell-based, human; details: for IDB-induced killing of T cells latently infected by HIV-1: added to 0.1 μM IDB, SAR405 2 μM or ABT-263 0.2 μM; for IDB-induced cell death in HIV-1-infected CMT: autophagy inhibitor added to 100 nM IDB, 24 h
Description: Naïve T cells, activated T cells, CMT or EMT with or without infection with HIV-1 (NL4-3, 1 MOI) were cultured for 4 days in the presence of 30 nM CCL19 and 0.3 ng/ml IL-2 for 4 days to establish latent HIV infection. […] The cells were then incubated with 1 μM FITC-DEVD-FMK (Biovision), followed by staining with APC-Annexin V (Biolegend) and intracellular staining with PE-anti-HIV p24. The cells were analyzed by flow cytometry. The percentage of cell death was calculated by the loss of live cells negative for annexin V and DEVD staining by comparing treated and untreated groups: (untreated—treated)/untreated x 100%.

[4] = tested on: HIV-1-infected cells and uninfected bystander T cells; assay: Mixed culture of HIV-1-infected and CellTrace Violet-labeled uninfected T cells; details: alone or together, 0.2 μM BMS-626529 present, 48 h
Description: To determine the specificity in the killing of HIV-1 infected cells, uninfected CD4 cells were labeled with CellTrace Violet dye (ThermoFisher Scientific) and mixed with HIV-1-infected cells at the ratio of 1:1. The cells were resuspended in RIPMI complete medium containing 0.2 μM BMS-626529, with 0.1 μM IDB, 0.2 μM ABT-263 and 2 μM SAR405 as indicated for 48 h. The cells were incubated with 1 μM FITC-DEVD-FMK, followed by staining with APC-Annexin and analyses by flow cytometry.

[5] = tested on: HIV-1-infected Hu-HSC mice; assay: SECH treatment of HIV-1-infected Hu-HSC mice (HIV-1 by RT-PCR, rebound after withdrawal); type: in vivo; details: JQ1 25 mg/kg b.w. included in SECH
Description: Raltegravir and BMS-663068 (20 mg/kg b.w.) were included as the ART regimen daily. Mice in the control group received ART only daily.
Quantification of HIV-1 mRNA and DNA. HIV-1 mRNA was measured by RT-PCR similar to the described protocols. […] The reaction was carried out by iTaq Universal Probes Supermix (Bio-Rad) with a QuantStudio 5 Real-Time PCR System and analyzed with the QuantStudio Design and Analysis Software (Applied Biosystem). Cycle threshold (Ct) values were calibrated using standard curve generated with the standard samples with known amounts of viral copies.
Spleen cells were isolated and red blood cells were lysed with ammonium chloride lysing buffer (0.15 M NH4Cl, 10 mM KHCO3, 0.1 mM EDTA). Bone marrow cells were collected from femur and tibia. […]
Generation of humanized mice for HIV-1 infection and cure studies. […] Three months later, reconstitution of human immune cells in mouse peripheral blood was determined by flow cytometry. […]
Raltegravir and BMS-663068 (20 mg/kg b.w.) alone were also administered on the alternate days. […] During treatments, mice were monitored daily for body weight, food consumption and mobilities. […]
Peripheral blood was collected at different intervals to detect HIV-1 mRNA by RT-PCR. […] Virus clearance was determined in the spleen, bone marrow by RT-PCR, TZA assay and p24 intracellular staining.

Molecule	IDB-induced killing of T cells latently infected by HIV-1 ([3]; 48 h)	killing of HIV-1-infected cells in mixed culture [4]	killing of uninfected bystander cells in mixed culture [4]	IDB-induced cell death in HIV-1-infected CMT [3]	number of HIV-1 p24-producing T cells after latency reversal [2]	also measured
phytohemagglutinin [PHA]	–	–	–	–	–	expression of HIV-1 mRNA in splenocytes [1]: induced the expression of HIV-1 mRNA; production of Gag p24 in CD4+ T cells [1]: production of Gag p24; latency reversal of HIV-1 shown by induction of p24 expression ([2]; CMT, HIV-1 NL4-3 0.1 MOI, 4 days latency): led to latency reversal of HIV-1; latency reversal observed by expression of HIV-1 mRNA after stimulation ([2]; latently infected cells, pol RT-PCR): Latency reversal was also observed
CC1(C)CCC(c2ccc(Cl)cc2)=C(CN2CCN(c3ccc(C(=O)NS(=O)(=O)c4ccc(N[C@H](CCN5CCOCC5)CSc5ccccc5)c(S(=O)(=O)C(F)(F)F)c4)cc3)CC2)C1 [ABT-263, navitoclax]	increased IDB-mediated cell death	killed HIV-1-infected cells	resistant	–	–	loss of viable HIV-1 p24+ cells in IDB-stimulated HIV-1-infected cells ([3]; ABT-263 0.2 μM with IDB, 48 h): significantly increased
Cc1sc2c(c1C)C(c1ccc(Cl)cc1)=N[C@@H](CC(=O)OC(C)(C)C)c1nnc(C)n1-2 [JQ1]	–	–	–	–	–	HIV-1 reactivation and clearance on inclusion of JQ1 in SECH [5]: further increased HIV-1 reactivation and clearance
C[C@@H]1COCCN1c1cc(=O)n2c(n1)N(Cc1cncc(Cl)c1)[C@H](C(F)(F)F)CC2 [SAR405]	increased IDB-induced killing	killed HIV-1-infected cells	resistant	promoted	decreased the number of HIV-1 p24-producing T cells	induction of HIV-1 p24 expression by IDB-induced latency reversal ([2]; CMT infected with HIV-1 AD8 at 1 MOI): inhibited
CCN(CC)CCCC(C)Nc1ccnc2cc(Cl)ccc12 (centres unmarked) [CQ, Chloroquine]	–	–	–	promoted	reduced the number of HIV-1 p24-producing T cells	–
